Measurements taken from ChEMBL document CHEMBL4325857, “Discovery and synthesis of tetrahydropyrimidinedione-4-carboxamides as endothelial lipase inhibitors” (Bioorg Med Chem Lett, 2018).

Tests used:
Endothelial lipase [1] = molecular target: T1, Endothelial lipase (Homo sapiens, UniProt Q9Y5X9); test: Inhibition of endothelial lipase (unknown origin) using D31-POPC-HDL as substrate after 2 hrs in presence of human serum by LC/MS analysis
T1 sequence (Q9Y5X9 whole entry): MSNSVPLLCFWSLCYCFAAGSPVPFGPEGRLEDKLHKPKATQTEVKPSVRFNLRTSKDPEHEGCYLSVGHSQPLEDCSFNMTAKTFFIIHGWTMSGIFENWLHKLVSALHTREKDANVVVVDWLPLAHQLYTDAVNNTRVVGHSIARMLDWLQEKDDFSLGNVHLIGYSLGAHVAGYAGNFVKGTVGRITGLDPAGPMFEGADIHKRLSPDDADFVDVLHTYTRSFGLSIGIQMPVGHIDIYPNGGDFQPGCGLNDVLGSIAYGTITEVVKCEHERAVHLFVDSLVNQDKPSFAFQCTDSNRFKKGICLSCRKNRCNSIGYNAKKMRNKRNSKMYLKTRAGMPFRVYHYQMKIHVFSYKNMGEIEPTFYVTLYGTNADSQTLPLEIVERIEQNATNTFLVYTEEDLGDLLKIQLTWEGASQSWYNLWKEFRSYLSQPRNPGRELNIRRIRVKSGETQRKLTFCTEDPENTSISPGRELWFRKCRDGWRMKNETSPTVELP

[2] = Metabolic stability in mouse liver microsomes assessed as parent compound remaining after 10 mins; format: ADME, Microsome; settings: read-out: Stability
[3] = Permeability of compound at pH 5.5 by PAMPA; format: ADME; settings: read-out: permeability
[4] = Permeability of compound at pH 7.4 by PAMPA; format: ADME; settings: read-out: permeability
[5] = Unbound plasma concentration in mouse at 1 mg/kg, iv; format: ADME, organism-based
[6] = AUC in mouse at 1 mg/kg, iv; format: ADME, organism-based; settings: in vivo
Endothelial lipase [7] = molecular target: T1, Endothelial lipase; test: Inhibition of recombinant human endothelial lipase expressed in African green monkey COS7 cells using HDL as substrate pretreated for 10 mins followed by substrate addition and measured after 30 mins by LC/MS/MS analysis
[8] = Half life in mouse at 1 mg/kg, iv; format: ADME, organism-based; settings: in vivo
[9] = AUC in mouse at 1 mg/kg, po; format: ADME, organism-based; settings: in vivo
[10] = Bioavailability in mouse at 1 mg/kg, […]; format: ADME, organism-based; settings: in vivo
[11] = Oral bioavailability in mouse at 1 mg/kg; format: ADME, organism-based; settings: in vivo

| Structure (SMILES) | IC50 (Endothelial lipase [1]) [nM] | remaining at 10 min [2] [%] | Papp [3] [×10⁻⁶ cm/s] | Papp [4] [×10⁻⁶ cm/s] | IC50 (Endothelial lipase [7]) [nM] | further results |
| --- | --- | --- | --- | --- | --- | --- |
| CCN1CC(C(=O)NC(C)CCc2ccc(Cl)c(Cl)c2)=C(O)C1=O (stereo not drawn) | > 476000 | 92 | 50.8 | 3.5 | – | fraction unbound [5]: 0.023; AUC [6]: 300 µM·h |
| O=C(N[C@H]1CC[C@@H](c2ccccc2)CC1)c1[nH]c(=O)[nH]c(=O)c1O | 25000 | 100 | 42.7 | 1.2 | 26 | fraction unbound [5]: 0.15; AUC [6]: 5.5 µM·h; half-life [8]: 1.1 h |
| CO[C@]1(c2ccc(F)cc2)CC[C@@H](NC(=O)c2[nH]c(=O)[nH]c(=O)c2N)CC1 | – | – | – | – | 1010 | – |
| O=C(N[C@H]1CC[C@@H](c2ccccc2)CC1)c1[nH]c(=O)[nH]c(=O)c1NC1CCCC1 | 436000 | – | – | – | 156 | – |
| O=C(N[C@H]1CC[C@@H](c2ccccc2)CC1)c1[nH]c(=O)n(Cc2ccccc2)c(=O)c1O | 32000 | – | 27.7 | 15.8 | 117 | – |
| Nc1c(C(=O)N[C@H]2CC[C@@H](c3ccccc3)CC2)[nH]c(=O)[nH]c1=O | – | – | – | – | 91 | – |
| Nc1c(C(=O)N[C@@H]2CC[C@H](c3ccccc3)C2)[nH]c(=O)[nH]c1=O | 231000 | – | – | – | 175 | – |
| Nc1c(C(=O)N[C@@H]2CCc3cc(OCc4ccccc4)ccc32)[nH]c(=O)[nH]c1=O | 80000 | 85 | – | 76.8 | 17 | – |
| CC(C)Cn1c(=O)[nH]c(C(=O)N[C@H]2CC[C@@H](c3ccccc3)CC2)c(O)c1=O | 48000 | 100 | – | – | 59 | – |
| Nc1c(C(=O)N[C@H]2CC[C@@H](c3ccc(OCc4ccccc4)cc3)CC2)[nH]c(=O)[nH]c1=O | 35000 | 85 | – | – | 21 | – |
| Nc1c(C(=O)N[C@H]2CC[C@@H](c3ccccc3)C2)[nH]c(=O)[nH]c1=O | > 952000 | – | – | – | 218 | – |
| Nc1c(C(=O)N[C@@H]2CCCc3c(OCc4ccccc4)cccc32)[nH]c(=O)[nH]c1=O | 81000 | 79 | 96 | 71.2 | 49 | fraction unbound [5]: 0.015; AUC [6]: 140 µM·h; AUC [9]: 79 µM·h; half-life [8]: 6.7 h; bioavailability [10]: 55%; bioavailability [11]: 55% |
| Nc1c(C(=O)N[C@H]2CC[C@@H](c3ccccc3)CC2)n(-c2ccccc2)c(=O)[nH]c1=O | – | – | – | – | 2350 | – |
| Nc1c(C(=O)N[C@@H]2CC[C@H](c3ccccc3)c3ccccc32)[nH]c(=O)[nH]c1=O | 76000 | 92 | 28.9 | 32.2 | 50 | AUC [6]: 11 µM·h; half-life [8]: 1.4 h |
| O=C(N[C@H]1CC[C@@H](c2ccccc2)CC1)c1[nH]c(=O)n(CCO)c(=O)c1O | > 143000 | – | – | – | 80 | – |
| CCN1CC(C(=O)N[C@H]2CC[C@@H](c3ccccc3)CC2)=C(O)C1=O | – | – | – | – | 82 | – |
